Measured values reported in PMC6406258, “The ROMP: A Powerful Approach to Synthesize Novel pH-Sensitive Nanoparticles for Tumor Therapy” (Biomolecules, 2019).
Where two headings read alike, the source gives them in different places.

Experiment: Hydrolysis of pro-drugs at biologically relevant pHs (half-lives)
Assay type: physicochemical
Source text: The behaviors of the eight pro-drugs synthesized were then validated by hydrolysis at various biologically relevant pHs: 4.3, 5.0, 6.0 for the pHs that can be found in acidic vesicles at various maturation degrees, and at pH 7.3 for the physiological and neutral pH. As one can see, the R substituent on the phenyl group is highly important for the modulation of the kinetics of the release. In the case of the two hydroxamic acid pro-drugs, the best system appeared to be the di-p-toluyl one (R=Me), with a half-life of 10–20 h at the moderately acidic pH of lysosomes. Other solutions were too stable or rapidly hydrolyzed. In the case of the benzamide drug, the best system was the diphenyl one (R=H). When a group with an electron donating effect was present on the phenyl rings, the benzamide pro-drugs were decomposed very quickly in a time range that limit the accurateness of the kinetic measurements.
The synthesis of pro-drugs (Scheme 1), the determination of the hydrolysis rates of pro-drugs in mildly acidic pH [25, 26], the pro-drug-functionalized macromonomer-PEO-CI994 (17), the pro-drug-functionalized macro-monomer-PEO-SAHA (16), the pro-drug-functionalized macro-monomer-PEO-NODH (15), and the synthesis of the pro-drug functionalized nanoparticles (NPs) (Figure 1), and the biological tests are developed in the supporting information part.

[1] = buffer, pH 4.3, read-out: Half-life (converted)
[2] = buffer, pH 7.3, read-out: Half-life (converted)
[3] = buffer, pH 6.0, read-out: Half-life (converted)
[4] = buffer, pH 5.0, read-out: Half-life (converted)

SMILES | half-life (pH 4.3, result in words) | half-life (pH 5.0, result in words) | half-life (pH 6.0, result in words) | half-life (pH 7.3, result in words) | half-life [1] | half-life [2] | half-life [3] | half-life [4]
C#CCOCCOCCOCCOCCn1cc(C(ONC(=O)CCCCCCC(=O)Nc2ccccc2)(c2ccccc2)c2ccccc2)nn1 [Compound 6a] | Stable | Stable | Stable | Stable | – | – | – | –
C#CCOCCOCCOCCOCCn1cc(C(ONC(=O)CCCCCCC(=O)Nc2ccccc2)(c2ccc(C)cc2)c2ccc(C)cc2)nn1 [Compound 6b] | – | – | – | – | 20 h | 96 h | 80 h | –
C#CCOCCOCCOCCOCCn1cc(C(ONC(=O)CCCCCCC(=O)Nc2ccccc2)(c2ccc(OC)cc2)c2ccc(OC)cc2)nn1 [Compound 6c] | – | – | – | – | 0.5 h | 0.567 h | 1.8 h | 1.33 h

Now from value to molecule:

half-life (pH 4.3, result in words) | half-life (pH 5.0, result in words) | half-life (pH 6.0, result in words) | half-life (pH 7.3, result in words) | half-life [1] | half-life [2] | half-life [3] | half-life [4] | SMILES
stable | stable | – | Stable | – | – | – | – | C#CCOCCOCCOCCOCCn1cc(C(ONC(=O)/C=C/C(C)=C/C2(C)Oc3cc(N(C)C)ccc3C2=O)(c2ccccc2)c2ccccc2)nn1 (stereo not shown) [Compound 8a]
– | – | – | – | – | – | 48 h | 6.67 h | C#CCOCCOCCOCCOCCn1cc(C(Nc2ccccc2NC(=O)c2ccc(NC(C)=O)cc2)(c2ccccc2)c2ccccc2)nn1 [Compound 7a]
– | – | – | – | < 0.0167 h | – | < 0.0833 h | < 0.0833 h | C#CCOCCOCCOCCOCCn1cc(C(Nc2ccccc2NC(=O)c2ccc(NC(C)=O)cc2)(c2ccc(OC)cc2)c2ccc(OC)cc2)nn1 [Compound 7c]
– | – | – | – | < 0.0167 h | – | 0.167 h | 0.2 h | C#CCOCCOCCOCCOCCn1cc(C(Nc2ccccc2NC(=O)c2ccc(NC(C)=O)cc2)(c2ccc(C)cc2)c2ccc(C)cc2)nn1 [Compound 7b]
